Measurements from patent US20260209220A1, “SUBSTITUTED TETRAHYDROPYRROLO-PYRIDINONE COMPOUNDS AND THEIR USE IN TREATING MEDICAL CONDITIONS” (Karuna Therapeutics, Inc., priority 2022, published 2026).

Columns and labels:
hM4 receptors = biological target: T1, hM4 receptors (Homo sapiens, UniProt P08173); assay: Human M4 PAM PERK assay (CHO cells, TR-FRET, with EC20 acetylcholine); assay type: cell-based
T1 construct: expressed in transfected cells; host or cells: CHO cells
T1 sequence (P08173 1-479): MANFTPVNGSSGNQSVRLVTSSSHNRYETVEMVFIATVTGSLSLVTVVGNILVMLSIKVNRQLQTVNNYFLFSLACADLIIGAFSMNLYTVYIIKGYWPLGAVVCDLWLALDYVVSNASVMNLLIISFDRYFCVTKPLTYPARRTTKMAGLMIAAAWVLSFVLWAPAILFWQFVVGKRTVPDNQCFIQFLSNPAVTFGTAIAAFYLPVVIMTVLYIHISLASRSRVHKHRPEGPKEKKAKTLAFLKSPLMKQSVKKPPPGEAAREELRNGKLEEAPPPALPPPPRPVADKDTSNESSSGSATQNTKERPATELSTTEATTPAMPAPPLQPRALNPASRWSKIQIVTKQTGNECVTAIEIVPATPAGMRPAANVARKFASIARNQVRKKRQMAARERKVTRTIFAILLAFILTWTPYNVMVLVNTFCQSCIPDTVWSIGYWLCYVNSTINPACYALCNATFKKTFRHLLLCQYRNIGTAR
Method in brief: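 CHO cells expressing human or rat M4, serum-starved 4 h, then given compound (10-point, 10 μM top, ½-log) with EC20 acetylcholine (10 nM final) for 5 min at 37 °C. Lysates assayed for phospho-ERK by TR-FRET after 2 h detection at RT.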

[1] = tested on: amphetamine-evoked hyperlocomotion; assay: Amphetamine-evoked hyperlocomotion in rats (open field); assay type: in vivo, rat; details: Sprague Dawley rats, 0.5 mg/kg amphetamine s.c., distance traveled in the 60 min after AMP
Procedure: Compounds may be tested for ability to impact behavior activity of rats according to the following procedures. Animals: Adult male, Sprague Dawley rats (Envigo, Indianapolis, IN, USA) are housed in a colony maintained at 23° C. with 12 h light/dark cycles (lights on at 0600 hours). All animals weigh 290-330 g at the beginning of the study and are equally divided into 5 groups (n=8 per group) and received one of the treatment conditions listed below. Behavioral Procedures: Studies are conducted in MedAssociates open field chambers (27.3 cm×27.3 cm×20.3 cm, MedAssociates, St. Albans, VT) in which movement is automatically tracked and recorded by 16 beam arrays. The administration pretreatment of the test article is determined to coincide with Tmax at the time of the amphetamine-evoked session with optimal route of administration. All groups are subcutaneously treated with 0.5 mg/kg amphetamine (AMP). The test article is tested in three dose groups with a half-log increase between doses. Risperidone (0.55 mg/kg, 30 minutes, s.c.) may be used as a positive control and is administered to group 5. To determine the role of test article on AMP-evoked hyperlocomotion, rats are placed in the open area and allowed to habituate for 30 min before being s.c. dosed with 0.5 mg/kg AMP. Locomotor data (distance traveled) is recorded as 5-minute bins throughout the 90-minute session. The dose of AMP is chosen based on the selective increase in locomotor behavior relative to stereotypes. The dose of risperidone is chosen that produced reliable effects and served as a positive control. Statistical Analysis: Spontaneous locomotion (prior to AMP administration) is calculated as the total distance traveled during the first 30 minutes of the experimental session. AMP-evoked responses are calculated as the total distance traveled during the last 60 minutes of the experimental session which commenced immediately after AMP administration. Locomotor data may be analyzed by a one-way ANOVA. When there is a significant overall ANOVA, post hoc comparisons may be made by Dunnett's test with statistical significance determined as p<0.05. […] Behavioral Procedures: Studies were conducted in MedAssociates open field chambers (27.3 cm×27.3 cm×20.3 cm, MedAssociates, St. Albans, VT) in which movement was automatically tracked and recorded by 16 beam arrays. Administration pretreatment of the test article was determined to coincide with Tmax at the time of the amphetamine-evoked session with optimal route of administration. […] Locomotor data (distance traveled) was recorded as 5-minute bins throughout the 90-minute session. […] Statistical Analysis: Spontaneous locomotion (prior to AMP administration) was calculated as the total distance traveled during the first 30 minutes of the experimental session. […]

SMILES | EC50 (hM4 receptors) [nM] | Dose Amount of Compound at which rats displayed a reduction in amphetamine-evoked hyperlocomotion activity [1] [mg/kg]
Cc1c2c(n(C)c(=O)c1C)CN(C(=O)CC1CN(c3ccnc(C(F)(F)F)c3)C1)C2 [Compound I-42, 1,3,4-Trimethyl-6-(2-(1-(2-(trifluoromethyl)pyridin-4-yl)azetidin-3-yl)acetyl)-1,5,6,7-tetrahydro-2H-pyrrolo[3,4-b]pyridin-2-one] | < 50 | 32
Cc1cc(=O)n(C)c2c1CN(C(=O)CC1CN(c3cc(F)cc(C4CC4)c3)C1)C2 [Compound I-4] | 50 to 200 | 10
Cc1c2c(n(C)c(=O)c1F)CN(C(=O)CC1CN(c3ccc(C4CC4)c(F)c3)C1)C2 [Compound I-88] | < 50 | 10
Cc1cc(=O)n(C)c2c1CN(C(=O)CC1CN(c3cccc(F)c3F)C1)C2 [Compound I-14] | 50 to 200 | 32
